In PubChem BioAssay AID280 (DTP/NCI, 2004):
“And” between values parts separate entries of the source, which are not always exact repeats. Equal entries are not always repeated. Toxic doses and inconclusive results are not listed.

System: nude mice, LOX melanoma ip, survival T/C
Assay: NCI In Vivo Anticancer Drug Screen. Data for tumor model Human Amelanotic Melanoma (LOX) (intraperitoneal) in NU/NU BALB/C (nude) mice
Conditions: endpoint: median survival time, higher = longer survival
Procedure: The antitumor activity of compounds was measured in mice bearing transplantable tumors. Survival or tumor size were measured and the results are expressed as the measurement made in the treated group (T) divided by the measurement made in the vehicle treated control group (C). The tumor model used in this assay is Human Amelanotic Melanoma (LOX) (intraperitoneal) in NU/NU BALB/C (nude) mice

[1] = dose: 6.25 mg/kg/injection, schedule: Q04DX003 (ip), vehicle: saline with Tween-80
[2] = dose: 12.5 mg/kg/injection, schedule: Q04DX003 (ip), vehicle: saline with Tween-80
[3] = dose: 25.0 mg/kg/injection, schedule: Q04DX003 (ip), vehicle: saline with Tween-80
[4] = dose: 100.0 mg/kg/injection, schedule: Q04DX003 (ip), vehicle: saline with Tween-80
[5] = dose: 3.13 mg/kg/injection, schedule: Q04DX003 (ip), vehicle: saline with Tween-80
[6] = dose: 75.0 mg/kg/injection, schedule: Q04DX003 (ip), vehicle: Klucel (hydroxypropylcellulose) (HPC)
[7] = dose: 150.0 mg/kg/injection, schedule: Q04DX003 (ip), vehicle: Klucel (hydroxypropylcellulose) (HPC)
[8] = dose: 300.0 mg/kg/injection, schedule: Q04DX003 (ip), vehicle: Klucel (hydroxypropylcellulose) (HPC)
[9] = dose: 75.0 mg/kg/injection, schedule: Q04DX003 (ip), vehicle: saline with Tween-80
[10] = dose: 150.0 mg/kg/injection, schedule: Q04DX003 (ip), vehicle: saline with Tween-80

`N[C@@H](Cc1ccc(N(CCCl)CCCl)cc1)C(=O)O` was tested, and the T/C (dose: 1.0 mg/kg/injection, schedule: Q01DX005 (ip), vehicle: water) was 155 % of control, the T/C (dose: 1.0 mg/kg/injection, schedule: Q01DX015 (ip), vehicle: water) was 166 % of control and the T/C (dose: 2.0 mg/kg/injection, schedule: Q01DX005 (ip), vehicle: water) was 258 % of control. The T/C (dose: 2.0 mg/kg/injection, schedule: Q01DX015 (ip), vehicle: water) was 218 % of control, the T/C (dose: 2.5 mg/kg/injection, schedule: Q01DX001 (ip), vehicle: water) was 171 % of control and the T/C (dose: 2.5 mg/kg/injection, schedule: Q04DX003 (ip), vehicle: water) was 162 % of control. For the same compound, the T/C (dose: 4.0 mg/kg/injection, schedule: Q01DX005 (ip), vehicle: water) was 344 % of control, the T/C (dose: 4.0 mg/kg/injection, schedule: Q01DX015 (ip), vehicle: water) was 344 % of control and the T/C (dose: 5.0 mg/kg/injection, schedule: Q01DX001 (ip), vehicle: water) was 188 % of control. For the same compound, the T/C (dose: 5.0 mg/kg/injection, schedule: Q04DX003 (ip), vehicle: water) was 241 % of control, the T/C (dose: 6.0 mg/kg/injection, schedule: Q04DX003 (ip), vehicle: saline) was 111 % of control and 203 % of control and the T/C (dose: 8.0 mg/kg/injection, schedule: Q01DX005 (ip), vehicle: water) was 344 % of control. For the same compound, the T/C (dose: 9.0 mg/kg/injection, schedule: Q04DX003 (ip), vehicle: saline) was 122 % of control and 203 % of control, the T/C (dose: 10.0 mg/kg/injection, schedule: Q01DX001 (ip), vehicle: water) was 344 % of control and the T/C (dose: 10.0 mg/kg/injection, schedule: Q04DX003 (ip), vehicle: water) was 344 % of control. For the same compound, the T/C (dose: 20.0 mg/kg/injection, schedule: Q01DX001 (ip), vehicle: water) was 344 % of control and the T/C (dose: 20.0 mg/kg/injection, schedule: Q04DX003 (ip), vehicle: water) was 97 % of control.

For `CC(C)N1C(=O)N(Cl)C2C1N(Cl)C(=O)N2Cl` (stereo not given), the T/C [1] was 103 % of control and 88 % of control, the T/C [2] was 102 % of control and 88 % of control and the T/C [3] was 109 % of control and 98 % of control. For the same compound, the T/C (dose: 50.0 mg/kg/injection, schedule: Q04DX003 (ip), vehicle: saline with Tween-80) was 107 % of control and 121 % of control and the T/C [4] was 102 % of control and 120 % of control.

`CC1OC2CC(O)C1(O)C1=C2C(O)=C(C(N)=O)C(=N)C1=O` (stereo not given) was tested, and the T/C (dose: 0.32 mg/kg/injection, schedule: Q04DX003 (ip), vehicle: saline + Tween-80 + alcohol) was 106 % of control, the T/C (dose: 0.63 mg/kg/injection, schedule: Q04DX003 (ip), vehicle: saline + Tween-80 + alcohol) was 99 % of control and the T/C (dose: 1.25 mg/kg/injection, schedule: Q04DX003 (ip), vehicle: saline + Tween-80 + alcohol) was 106 % of control. The T/C (dose: 2.5 mg/kg/injection, schedule: Q04DX003 (ip), vehicle: saline + Tween-80 + alcohol) was 102 % of control and the T/C (dose: 5.0 mg/kg/injection, schedule: Q04DX003 (ip), vehicle: saline + Tween-80 + alcohol) was 102 % of control.

In the case of `CCC(NC(N)=O)C(CC)NC(N)=O` (stereo not given), the T/C [5] is reported as 103 % of control, the T/C [1] is reported as 109 % of control and the T/C [3] is reported as 105 % of control.

With `NNC(=O)c1ccncc1` the T/C (dose: 18.75 mg/kg/injection, schedule: Q04DX003 (ip), vehicle: saline) was 110 % of control and the T/C (dose: 37.5 mg/kg/injection, schedule: Q04DX003 (ip), vehicle: saline) was 109 % of control.

`CNC(=O)N(C)N=NCCCl` was tested, and the T/C [4] was 201 % of control, the T/C (dose: 200.0 mg/kg/injection, schedule: Q04DX003 (ip), vehicle: saline with Tween-80) was 309 % of control and the T/C (dose: 400.0 mg/kg/injection, schedule: Q04DX003 (ip), vehicle: saline with Tween-80) was 309 % of control. For the same compound, the T/C (dose: 800.0 mg/kg/injection, schedule: Q04DX003 (ip), vehicle: saline with Tween-80) was 309 % of control.

With `COC1=C(OC)C(=O)C(N(C)C)=C(CO)C1=O` the T/C (dose: 25.0 mg/kg/injection, schedule: Q04DX003 (ip), vehicle: saline) was 116 % of control, the T/C (dose: 50.0 mg/kg/injection, schedule: Q04DX003 (ip), vehicle: saline) was 103 % of control and the T/C (dose: 100.0 mg/kg/injection, schedule: Q04DX003 (ip), vehicle: saline) was 104 % of control. The T/C (dose: 200.0 mg/kg/injection, schedule: Q04DX003 (ip), vehicle: saline) was 117 % of control.

In the case of `Cc1c2ccccc2c(C)c2c1cc(C(=O)O)c1ccccc12`, the T/C (dose: 12.5 mg/kg/injection, schedule: Q04DX003 (ip), vehicle: sodium bicarbonate) is reported as 115 % of control, the T/C (dose: 25.0 mg/kg/injection, schedule: Q04DX003 (ip), vehicle: sodium bicarbonate) is reported as 118 % of control and the T/C (dose: 200.0 mg/kg/injection, schedule: Q04DX003 (ip), vehicle: sodium bicarbonate) is reported as 167 % of control.

For `O=C1c2ccccc2C(=O)c2c1cn1c2Cc2ccccc2C1`, the T/C (dose: 6.25 mg/kg/injection, schedule: Q04DX003 (ip), vehicle: Klucel (hydroxypropylcellulose) (HPC)) was 91 % of control, the T/C (dose: 25.0 mg/kg/injection, schedule: Q04DX003 (ip), vehicle: Klucel (hydroxypropylcellulose) (HPC)) was 93 % of control and the T/C (dose: 50.0 mg/kg/injection, schedule: Q04DX003 (ip), vehicle: Klucel (hydroxypropylcellulose) (HPC)) was 109 % of control and 95 % of control. For the same compound, the T/C (dose: 100.0 mg/kg/injection, schedule: Q04DX003 (ip), vehicle: Klucel (hydroxypropylcellulose) (HPC)) was 90 % of control, the T/C (dose: 200.0 mg/kg/injection, schedule: Q04DX003 (ip), vehicle: Klucel (hydroxypropylcellulose) (HPC)) was 91 % of control and the T/C (dose: 400.0 mg/kg/injection, schedule: Q04DX003 (ip), vehicle: Klucel (hydroxypropylcellulose) (HPC)) was 95 % of control.

With `C=CCOc1cc2c(cc1C(C)c1ccc(OC)cc1)OCO2` (stereo not given) the T/C (dose: 37.5 mg/kg/injection, schedule: Q04DX003 (ip), vehicle: Klucel (hydroxypropylcellulose) (HPC)) was 101 % of control, the T/C [6] was 96 % of control and the T/C [7] was 109 % of control. For the same compound, the T/C [8] was 112 % of control.

In the case of `CC(C)NC(=O)OCc1c(COC(=O)NC(C)C)c(-c2ccc(Cl)c(Cl)c2)n2c1CCC2`, the T/C [9] is reported as 238 % of control, the T/C (dose: 75.0 mg/kg/injection, schedule: Q04DX003 (ip), vehicle: saline) is reported as 152 % of control and the T/C [10] is reported as 324 % of control. For the same compound, the T/C (dose: 150.0 mg/kg/injection, schedule: Q04DX003 (ip), vehicle: saline) was 210 % of control, the T/C (dose: 300.0 mg/kg/injection, schedule: Q04DX003 (ip), vehicle: saline with Tween-80) was 313 % of control and the T/C (dose: 300.0 mg/kg/injection, schedule: Q04DX003 (ip), vehicle: saline) was 178 % of control. The T/C (dose: 600.0 mg/kg/injection, schedule: Q04DX003 (ip), vehicle: saline) was 344 % of control and the T/C (dose: 1200.0 mg/kg/injection, schedule: Q04DX003 (ip), vehicle: saline) was 344 % of control.

In the case of `C=C(c1ccc(OC)c(OC)c1)c1nccc2cc(OC)c(OC)cc12`, the T/C [6] is reported as 88 % of control, the T/C [7] is reported as 99 % of control and the T/C [8] is reported as 96 % of control.

`NC(=S=O)C(N)=S=O` was tested, and the T/C (dose: 62.5 mg/kg/injection, schedule: Q04DX003 (ip), vehicle: saline with Tween-80) was 109 % of control, the T/C (dose: 125.0 mg/kg/injection, schedule: Q04DX003 (ip), vehicle: saline with Tween-80) was 105 % of control and the T/C (dose: 250.0 mg/kg/injection, schedule: Q04DX003 (ip), vehicle: saline with Tween-80) was 105 % of control. The T/C (dose: 500.0 mg/kg/injection, schedule: Q04DX003 (ip), vehicle: saline with Tween-80) was 105 % of control.

In the case of `CCOC(=O)Nc1cc2c(c(N)n1)N=C(c1ccc3ccccc3c1)CN2`, the T/C (dose: 14.4 mg/kg/injection, schedule: Q04DX003 (ip), vehicle: saline with Tween-80) is reported as 100 % of control, the T/C (dose: 24.0 mg/kg/injection, schedule: Q04DX003 (ip), vehicle: saline with Tween-80) is reported as 123 % of control and the T/C (dose: 40.0 mg/kg/injection, schedule: Q04DX003 (ip), vehicle: saline with Tween-80) is reported as 103 % of control and 112 % of control. For the same compound, the T/C (dose: 66.66 mg/kg/injection, schedule: Q04DX003 (ip), vehicle: saline with Tween-80) was 109 % of control, the T/C (dose: 67.0 mg/kg/injection, schedule: Q04DX003 (ip), vehicle: saline with Tween-80) was 111 % of control and the T/C (dose: 111.0 mg/kg/injection, schedule: Q04DX003 (ip), vehicle: saline with Tween-80) was 112 % of control. For the same compound, the T/C (dose: 185.0 mg/kg/injection, schedule: Q04DX003 (ip), vehicle: saline with Tween-80) was 122 % of control.

For `O=C(O)Cc1cccc(=O)c(O)c1C(=O)O`, the T/C [9] was 97 % of control and the T/C [10] was 94 % of control.

With `S=C(N/N=C1/CCCC/C1=N/NC(=S)N1CCOCC1)N1CCOCC1` the T/C [5] was 116 % of control, the T/C [1] was 117 % of control and the T/C [2] was 110 % of control.
